Numbers after ± are expanded uncertainties.
Assay: xn = mol fraction of the nth substance listed
Conditions: 101.33 kPa, Liquid

O=S1(=O)CCCC1 [sulfolane] + CCc1ccccc1
Conditions | mass density [kg/m3] | viscosity [mPa·s]
303.15 K, x2 = 0 | 1260.8 ± 6.4 | 10.07 ± 0.32
303.15 K, x2 = 0.1118 | 1209.27 ± 5.5 | 6.224 ± 0.19
303.15 K, x2 = 0.2205 | 1160.4 ± 4.6 | 4.155 ± 0.13
303.15 K, x2 = 0.3267 | 1114.66 ± 3.8 | 2.942 ± 0.085
303.15 K, x2 = 0.4301 | 1071.65 ± 3 | 2.185 ± 0.061
303.15 K, x2 = 0.5309 | 1031.19 ± 2.3 | –
303.15 K, x2 = 0.6293 | 993.33 ± 1.8 | 1.324 ± 0.035
303.15 K, x2 = 0.7254 | 957.17 ± 2.2 | 1.057 ± 0.028
303.15 K, x2 = 0.8194 | 923.09 ± 2.6 | 0.861 ± 0.023
303.15 K, x2 = 0.9106 | 890.45 ± 3.1 | 0.716 ± 0.019
313.15 K, x2 = 0 | 1251.9 ± 6.3 | 7.808 ± 0.25
313.15 K, x2 = 0.1118 | 1200.44 ± 5.3 | 4.943 ± 0.16
313.15 K, x2 = 0.2205 | 1151.53 ± 4.5 | 3.385 ± 0.1
313.15 K, x2 = 0.3267 | 1105.77 ± 3.6 | 2.452 ± 0.072
313.15 K, x2 = 0.4301 | 1062.77 ± 2.9 | 1.835 ± 0.052
313.15 K, x2 = 0.5309 | 1022.32 ± 2.2 | –
313.15 K, x2 = 0.6293 | 984.45 ± 1.9 | 1.135 ± 0.031
313.15 K, x2 = 0.7254 | 948.31 ± 2.3 | 0.924 ± 0.025
313.15 K, x2 = 0.8194 | 914.23 ± 2.8 | 0.757 ± 0.02
313.15 K, x2 = 0.9106 | 881.6 ± 3.2 | 0.632 ± 0.017
323.15 K, x2 = 0 | 1243.36 ± 6.2 | 6.194 ± 0.2
323.15 K, x2 = 0.1118 | 1191.64 ± 5.2 | 4.007 ± 0.13
323.15 K, x2 = 0.2205 | 1142.7 ± 4.3 | 2.801 ± 0.085
323.15 K, x2 = 0.3267 | 1096.92 ± 3.5 | 2.048 ± 0.06
323.15 K, x2 = 0.4301 | 1053.9 ± 2.8 | 1.561 ± 0.044
323.15 K, x2 = 0.5309 | 1013.47 ± 2.1 | 1.136 ± 0.032
323.15 K, x2 = 0.6293 | 975.58 ± 2 | 0.993 ± 0.027
323.15 K, x2 = 0.7254 | 939.43 ± 2.4 | 0.813 ± 0.022
323.15 K, x2 = 0.8194 | 905.36 ± 2.9 | 0.66 ± 0.018
323.15 K, x2 = 0.9106 | 872.72 ± 3.4 | 0.564 ± 0.016
333.15 K, x2 = 0 | 1234.62 ± 6 | 5.009 ± 0.17
333.15 K, x2 = 0.1118 | 1182.85 ± 5.1 | 3.33 ± 0.11
333.15 K, x2 = 0.2205 | 1133.86 ± 4.2 | 2.35 ± 0.072
333.15 K, x2 = 0.3267 | 1088.06 ± 3.4 | 1.763 ± 0.052
333.15 K, x2 = 0.4301 | 1045.02 ± 2.6 | 1.347 ± 0.039
333.15 K, x2 = 0.5309 | 1004.57 ± 2 | –
333.15 K, x2 = 0.6293 | 966.66 ± 2.1 | 0.876 ± 0.024
333.15 K, x2 = 0.7254 | 930.5 ± 2.6 | 0.724 ± 0.02
333.15 K, x2 = 0.8194 | 896.41 ± 3 | 0.597 ± 0.017
333.15 K, x2 = 0.9106 | 863.76 ± 3.5 | 0.505 ± 0.014
343.15 K, x2 = 0 | 1225.92 ± 5.9 | 4.126 ± 0.14
343.15 K, x2 = 0.1118 | 1173.93 ± 5 | 2.796 ± 0.09
343.15 K, x2 = 0.2205 | 1124.89 ± 4.1 | 2.005 ± 0.062
343.15 K, x2 = 0.3267 | 1079.06 ± 3.3 | 1.541 ± 0.046
343.15 K, x2 = 0.4301 | 1036.02 ± 2.5 | 1.177 ± 0.034
343.15 K, x2 = 0.5309 | 995.54 ± 1.9 | 0.882 ± 0.025
343.15 K, x2 = 0.6293 | 957.62 ± 2.3 | 0.772 ± 0.022
343.15 K, x2 = 0.7254 | 921.43 ± 2.7 | 0.646 ± 0.018
343.15 K, x2 = 0.8194 | 887.32 ± 3.2 | 0.536 ± 0.015
343.15 K, x2 = 0.9106 | 854.67 ± 3.7 | 0.459 ± 0.014
353.15 K, x2 = 0 | 1216.8 ± 5.8 | 3.44 ± 0.12
353.15 K, x2 = 0.1118 | 1165.14 ± 4.8 | 2.371 ± 0.076
353.15 K, x2 = 0.2205 | 1116.08 ± 4 | 1.736 ± 0.054
353.15 K, x2 = 0.3267 | 1070.18 ± 3.1 | 1.319 ± 0.04
353.15 K, x2 = 0.4301 | 1027.1 ± 2.4 | 1.039 ± 0.03
353.15 K, x2 = 0.5309 | 986.58 ± 2 | 0.785 ± 0.023
353.15 K, x2 = 0.6293 | 948.63 ± 2.4 | 0.692 ± 0.02
353.15 K, x2 = 0.7254 | 912.4 ± 2.8 | 0.583 ± 0.017
353.15 K, x2 = 0.8194 | 878.28 ± 3.3 | 0.484 ± 0.014
353.15 K, x2 = 0.9106 | 845.58 ± 3.8 | 0.417 ± 0.013

— the NIST ThermoML archive (doi:10.1021/je049572f)
